In US20110098312A1, “METHODS FOR PREVENTING THE DEVELOPMENT OF RETINOPATHY BY THE ORAL ADMINISTRATION OF NNR LIGANDS” (Targacept ,Inc, priority 2008, published 2011):

How the values were obtained:
Pig primary RPE cells = test: Transepithelial resistance (TER) of RPE monolayers under oxidative stress (H2O2 and serum as source of complement); type: cell-based; details: for Mean Diff., Fisher's PLSD for 100 nM effect: treatment / Mean Diff., Fisher's PLSD for nicotine effect: treatment: Significance Level 5%; for Mean Diff., Fisher's PLSD for nicotine effect: treatment: dose response profiles; for dose-response profile of TER preservation: range 5 nM-1 μM; for effect of compound on TER on its own: test compound controls lack H2O2; for EC50: Sus scrofa, RPE, pretreatment 1 hour prior to stressors, tested at 5 nM-1 μM, read-out: ED50 (reduction of oxidative stress-mediated TER loss)
Experimental: Pig primary RPE cells grown as stable monolayers were used for this set of experiments. RPE monolayers were treated with hydrogen peroxide (H2O2) and serum as a source of complement. This treatment is known to result in loss of transepithelial resistance (TER) in RPE cells that is dependent upon reactive oxygen species and superoxide production. […] Combined treatment of two stressors present in AMD (low oxidative stress and complement activation) results in TER loss; whereas each stressor alone has no effect. This loss in TER can be eliminated by pretreatment with superoxide dismutase (SOD) mimetic (MnTBAP). […] FIG. 4 is derived from the maximal effects observed in FIG. 3. […] The higher the resistance, the less injury to the cell. Note that “HI” is “heat inactivated.” Heat inactivates complement, a necessary component to cause injury to the RPE in the presence of peroxides. Pig primary RPE cells were harvested from pigs used for practice surgeries. Cultures were performed described by Ablonczy, Z. and C. E. Crosson, VEGF modulation of retinal pigment epithelium resistance. […] Chemicals. Compounds were tested at 5 nM-1 μM concentration. Compound A-E are as noted herein.

[1] = test system: Rat brain endothelial cell line gp8.3 cells; test: Alpha 7 ligand modulation of radiation-induced ROS generation; type: cell-based; details: 10 uM ligand for 1 h prior to single dose of 10 Gy; H2DCFDA; FIG. 2
[2] = pairwise comparison versus Compound B
[3] = pairwise comparison versus Compound C
[4] = pairwise comparison versus Compound D
[5] = pairwise comparison versus Compound A

Compound | Mean Diff., Fisher's PLSD for 100 nM effect: treatment (Pig primary RPE cells; [2]) | Mean Diff., Fisher's PLSD for nicotine effect: treatment (Pig primary RPE cells; [2]) | dose-response profile of TER preservation (Pig primary RPE cells; FIG. 4) | Mean Diff., Fisher's PLSD for 100 nM effect: treatment (Pig primary RPE cells; [4]) | Mean Diff., Fisher's PLSD for nicotine effect: treatment (Pig primary RPE cells; [4]) | further results
c1cncc(C2CC3CCN2CC3)c1 (stereo not drawn) [Compound D] | −8.023 | −7.179 | – | – | – | –
CN1CCCC1c1cccnc1 (stereo not drawn) [nicotine, reference compound] | – | – | – | – | – | reduction of oxidative stress-mediated loss of epithelial cell integrity (TER deterioration) (Pig primary RPE cells; H2O2 + serum, dose response, FIG. 4): reduces transepithelial resistance (TER) deterioration in the presence of stress in a dose-dependent manner
Cc1ccc(C(=O)N[C@@H]2C3CCN(CC3)[C@H]2Cc2cccnc2)s1 [Compound B, N-((2S,3R)-2-((pyridin-3-yl)methyl)-1-azabicyclo[2.2.2]oct-3-yl)-5-methylthiophene-2-carboxamide] | – | – | plateaued at or around the ED50 level | – | – | radiation-induced increase in ROS level [1]: blocked radiation-induced increase in ROS level; effect of compound on TER on its own (Pig primary RPE cells): reduced TER on their own
CN[C@@]1(C)[C@@H]2CC[C@@H](C2)C1(C)C [Compound A, exo-S-mecamylamine] | −14.209 | −16.538 | exhibited a dose-response profile over the entire range used | −6.177 | −9.359 | Mean Diff., Fisher's PLSD for 100 nM effect: treatment (Pig primary RPE cells; [3]): −16.276; Mean Diff., Fisher's PLSD for nicotine effect: treatment (Pig primary RPE cells; [3]): −14.503
O=C(O)c1ccc(/C2=C3\C=CC(=N3)/C(c3ccc(C(=O)O)cc3)=c3/cc/c4[n]3[Mn]([Cl])[n]3c2ccc3/C(c2ccc(C(=O)O)cc2)=C2/C=CC(=N2)\C=4c2ccc(C(=O)O)cc2)cc1 [MnTBAP, reference compound] | – | – | – | – | – | loss in TER caused by combined stressors (Pig primary RPE cells; pretreatment, low oxidative stress and complement activation): eliminated
O=C(N[C@@H]1C2CCN(CC2)[C@H]1Cc1cccnc1)c1cc(F)cc(F)c1 [Compound C, N-((2S,3R)-2-((3-pyridinyl)methyl)-1-azabicyclo[2.2.2]oct-3-yl)-3,5-difluorobenzamide] | 2.066 | −2.035 | plateaued at or around the ED50 level | 10.098 | 5.144 | EC50 (Pig primary RPE cells; FIG. 4): < 50 nM; effect of compound on TER on its own (Pig primary RPE cells): reduced TER on their own
C(=C\[C@H]1CCNC1)/c1cncnc1 [Compound E, (R)-5-((E)-2-pyrrolidin-3-ylvinyl)pyrimidine] | 25.718 | 17.682 | – | 33.750 | 24.861 | EC50 (Pig primary RPE cells; FIG. 4): ~200 nM; Mean Diff., Fisher's PLSD for 100 nM effect: treatment (Pig primary RPE cells; [5]): 39.927; Mean Diff., Fisher's PLSD for nicotine effect: treatment (Pig primary RPE cells; [5]): 34.222; Mean Diff., Fisher's PLSD for 100 nM effect: treatment (Pig primary RPE cells; [3]): 23.652; Mean Diff., Fisher's PLSD for nicotine effect: treatment (Pig primary RPE cells; [3]): 19.717
